Reference: patent publication US12679836B2, “4H-pyrrolo[3,2-c]pyridin-4-one compounds” (Bayer Aktiengesellschaft, priority 2019, dated 2026)

Experiments:
[1] = target: Ba/F3-ERBB2-A775_G776insYVMA cells (Homo sapiens, UniProt P04626, DUP772-775, cells depend on it); assay: Ba/F3 cell survival assay, ERBB2 A775_G776insYVMA; assay type: cell-based; conditions: without IL-3, without EGF, 48 h; read-out: BA/F3 (ERBB2 A775_G776 insYVMA) IC50
Description: 293T cells from ATCC were transfected with pBABEpuro expression constructs for mutant EGFR (V769_D770insASV, D770_N771insNPG, N771_P772insH, H773_V774insNPH, E746_A750del, L858R, D770_N771insSVD C797S, E746_A750del C797S, L858R C797S, L861Q) or mutant ERBB2 (A775_G776insYVMA) and pCL-Eco packaging vector using Fugene-6 transfection reagent from Promega. Plates were incubated at 37° C. for 48 h. Retrovirus was harvested by filtering the media supernatant through a 0.45 μm filter.
Ba/F3 cells purchased from DSMZ were grown in RPMI+10% FBS+10 ng/mL IL-3 and infected with filtered retroviral supernatant at a 1:2 dilution. Polybrene was added to a concentration of 8 μg/mL, plates were spun for 90 min, and incubated overnight at 37° C. 2 μg/mL puromycin was added to the infected cells 24 h after infection and cells were continually grown in the presence of puromycin and 10 ng/mL IL-3. Following stably expressing Ba/F3 cell lines were generated: Ba/F3-EGFR-V769_D770insASV, Ba/F3-EGFR-D770_N771insNPG, Ba/F3-EGFR-N771_P772insH, Ba/F3-EGFR-H773_V774insNPH, Ba/F3-EGFR-E746_A750del, Ba/F3-EGFR-L858R, Ba/F3-EGFR-D770_N771 insSVD C797S, Ba/F3-EGFR-E746_A750del C797S, Ba/F3-EGFR-L858R C797S, Ba/F3-EGFR L861Q and Ba/F3-ERBB2-A775_G776insYVMA (Ba/F3-vector-control).
For cell survival assays, Ba/F3 cells were grown to a density of 1-2 million cells per mL, spun down and resuspended in media without IL-3, and replated at a concentration 200,000-500,000 cells per mL. The cells ectopically expressing WT EGFR plated with 10 ng/mL Millipore Culture grade EGF and Ba/F3 cells containing mutant EGFR or Mutant ERBB2 were cultivated without EGF. The cells ectopically expressing pBABEpuro empty vector were plated with 10 ng/mL IL-3.
2 days later, cells were plated in 50 μL in a 384 well plate at a concentration of 4000 cells per well for cells assayed in the absence of IL-3 and 2000 cells per well for cells assayed in the presence of IL-3. 100 nL of compound was added to each well using a 100 nL pin head, and plates were incubated at 37° C. for 48 h.
Cell viability was measured by adding 20 μL of Cell Titer-Glo Luminescent Cell Viability Reagent diluted 1:3 in PBS. Plates were sealed with Perkin Elmer Top-Seal, inverted several times to mix, and immediately centrifuged at 1000 rpm for 2 min. Plates were incubated in low light conditions for 8-10 min and luminescence was measured.

[2] = target: Ba/F3-EGFR-WT cells (Homo sapiens, UniProt P00533); assay: Ba/F3 cell survival assay (Cell Titer-Glo), WT EGFR; assay type: cell-based; conditions: without IL-3, with 10 ng/mL EGF, 48 h; read-out: BA/F3 (wild type) IC50
Outline: (§1)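 Ba/F3 cells stably expressing WT EGFR or EGFR-insSVD from retroviral transduction were grown without IL-3 on 10 ng/mL EGF. Cells were plated at 4000 cells/well, treated with compound for 48 h at 37° C, and viability was read by CellTiter-Glo luminescence.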

[3] = test system: HCC-827 cells (EGFRex19del); assay: HCC-827 proliferation assay (Cell Titer Glo); assay type: cell-based; conditions: Homo sapiens, HCC827, 72 h
Description: Cellular Data Description (HCC-827 Cells, EGFRex19del)
(§2) HCC-827 cells were purchased from ATCC. 400 HCC-829 cells per well were seeded in growth medium (RPM11640, 10% FCS) in a 384-well plate (CORNING #3571). Seed reference plate for time zero determination on the same day. All plates were incubated overnight at 37° C. After 24 hours, test compound were added in 7-step dilution using HP Compound printer and incubated at 37° C. for 72 h. After 3 days, 30 μL/well CTG solution (Promega Cell Titer Glo solution; catalog # G755B and G756B) were added to each well, incubated for 30 minutes and the plate were read on PheraStar. Proliferation is calculated after subtracting time zero luminescence values from day 4 values and comparing to untreated wells.
The IC50 values were determined using the four parameter fit.

[4] = target: T1, EGFR with insertion of SVD between D770 and N771 (EGFR ins SVD) (Homo sapiens, UniProt P00533, DUP768-770); assay: Exon20-Mutant-EGFR(D770_N771insSVD) kinase assay (TR-FRET); assay type: biochemical; conditions: 2 mM ATP, several values per example where printed
T1 construct: made in house; host or cells: Sf9 insect cells (baculovirus)

[5] = test system: PC9 cells (EGFRex19del); assay: PC9 proliferation assay (Cell Titer Glo); assay type: cell-based; conditions: Homo sapiens, PC-9, 72 h
Description: Cellular Data Description (PC9 Cells, EGFRex19del)
as §2, with “PC9” for “HCC-827”, “PC9” for “HCC-829”, “(DMEM,” for “(RPM11640,”, “wells. The IC50 values were determined using the four parameter fit.” for “wells.”

[6] = target: T2, Bub1 (Homo sapiens, UniProt O43683); assay: Bub1 TR-FRET high ATP kinase assay; assay type: biochemical; conditions: Bub1 high ATP (2 mM) IC50 [mol/l], 2 mM ATP
T2 construct: catalytic domain of human Bub1 (amino acids 704-1085); His6 (N); made in house; host or cells: Hi5 insect cells
Outline: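 Recombinant His6-tagged human Bub1 catalytic domain (aa 704-1085), from Hi5 insect cells, phosphorylating a biotinylated peptide substrate at high ATP concentration. TR-FRET read-out.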

[7] = target: Ba/F3-EGFR-insSVD cells (Homo sapiens, UniProt P00533, DUP768-770, cells depend on it); assay: Ba/F3 cell survival assay (Cell Titer-Glo), EGFR-insSVD; assay type: cell-based; conditions: without IL-3, with 10 ng/mL EGF, 48 h; read-out: BA/F3 (insSVD) IC50
Outline: as §1

Chain of Ba/F3-ERBB2-A775_G776insYVMA cells (P04626 with tags, fused parts or gaps DUP772-775): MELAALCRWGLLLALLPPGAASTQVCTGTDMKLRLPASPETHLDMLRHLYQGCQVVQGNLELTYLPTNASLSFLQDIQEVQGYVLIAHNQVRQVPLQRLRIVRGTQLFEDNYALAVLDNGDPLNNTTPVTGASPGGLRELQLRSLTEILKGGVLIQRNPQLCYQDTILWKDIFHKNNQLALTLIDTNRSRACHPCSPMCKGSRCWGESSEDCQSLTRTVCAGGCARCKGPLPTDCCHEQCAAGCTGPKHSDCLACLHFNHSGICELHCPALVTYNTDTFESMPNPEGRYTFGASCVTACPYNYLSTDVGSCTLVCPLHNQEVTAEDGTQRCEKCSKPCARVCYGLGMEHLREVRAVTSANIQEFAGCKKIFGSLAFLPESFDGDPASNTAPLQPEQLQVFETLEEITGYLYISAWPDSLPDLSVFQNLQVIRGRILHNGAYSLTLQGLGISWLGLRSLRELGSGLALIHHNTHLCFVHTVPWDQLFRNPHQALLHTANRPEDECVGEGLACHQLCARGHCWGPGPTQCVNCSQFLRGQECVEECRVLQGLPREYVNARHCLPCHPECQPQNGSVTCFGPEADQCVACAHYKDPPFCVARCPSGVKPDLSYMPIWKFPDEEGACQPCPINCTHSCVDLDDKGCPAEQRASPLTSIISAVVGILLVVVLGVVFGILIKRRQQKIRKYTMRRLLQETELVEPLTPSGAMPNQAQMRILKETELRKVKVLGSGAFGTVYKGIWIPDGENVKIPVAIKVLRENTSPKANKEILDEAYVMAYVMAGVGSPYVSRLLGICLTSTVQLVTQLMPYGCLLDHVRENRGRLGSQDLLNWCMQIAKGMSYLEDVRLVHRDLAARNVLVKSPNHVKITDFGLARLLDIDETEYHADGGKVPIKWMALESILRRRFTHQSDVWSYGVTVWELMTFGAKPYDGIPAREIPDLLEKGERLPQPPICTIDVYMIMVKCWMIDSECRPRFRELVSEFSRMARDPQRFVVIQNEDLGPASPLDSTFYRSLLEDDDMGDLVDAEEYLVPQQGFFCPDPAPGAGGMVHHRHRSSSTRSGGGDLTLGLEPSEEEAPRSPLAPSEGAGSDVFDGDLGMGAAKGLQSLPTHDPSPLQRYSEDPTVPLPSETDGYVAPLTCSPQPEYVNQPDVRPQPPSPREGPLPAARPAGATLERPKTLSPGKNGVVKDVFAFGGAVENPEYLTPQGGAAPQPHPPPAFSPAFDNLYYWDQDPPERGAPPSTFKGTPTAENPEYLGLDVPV
Chain of Ba/F3-EGFR-WT cells (P00533 whole entry, stated change not applied): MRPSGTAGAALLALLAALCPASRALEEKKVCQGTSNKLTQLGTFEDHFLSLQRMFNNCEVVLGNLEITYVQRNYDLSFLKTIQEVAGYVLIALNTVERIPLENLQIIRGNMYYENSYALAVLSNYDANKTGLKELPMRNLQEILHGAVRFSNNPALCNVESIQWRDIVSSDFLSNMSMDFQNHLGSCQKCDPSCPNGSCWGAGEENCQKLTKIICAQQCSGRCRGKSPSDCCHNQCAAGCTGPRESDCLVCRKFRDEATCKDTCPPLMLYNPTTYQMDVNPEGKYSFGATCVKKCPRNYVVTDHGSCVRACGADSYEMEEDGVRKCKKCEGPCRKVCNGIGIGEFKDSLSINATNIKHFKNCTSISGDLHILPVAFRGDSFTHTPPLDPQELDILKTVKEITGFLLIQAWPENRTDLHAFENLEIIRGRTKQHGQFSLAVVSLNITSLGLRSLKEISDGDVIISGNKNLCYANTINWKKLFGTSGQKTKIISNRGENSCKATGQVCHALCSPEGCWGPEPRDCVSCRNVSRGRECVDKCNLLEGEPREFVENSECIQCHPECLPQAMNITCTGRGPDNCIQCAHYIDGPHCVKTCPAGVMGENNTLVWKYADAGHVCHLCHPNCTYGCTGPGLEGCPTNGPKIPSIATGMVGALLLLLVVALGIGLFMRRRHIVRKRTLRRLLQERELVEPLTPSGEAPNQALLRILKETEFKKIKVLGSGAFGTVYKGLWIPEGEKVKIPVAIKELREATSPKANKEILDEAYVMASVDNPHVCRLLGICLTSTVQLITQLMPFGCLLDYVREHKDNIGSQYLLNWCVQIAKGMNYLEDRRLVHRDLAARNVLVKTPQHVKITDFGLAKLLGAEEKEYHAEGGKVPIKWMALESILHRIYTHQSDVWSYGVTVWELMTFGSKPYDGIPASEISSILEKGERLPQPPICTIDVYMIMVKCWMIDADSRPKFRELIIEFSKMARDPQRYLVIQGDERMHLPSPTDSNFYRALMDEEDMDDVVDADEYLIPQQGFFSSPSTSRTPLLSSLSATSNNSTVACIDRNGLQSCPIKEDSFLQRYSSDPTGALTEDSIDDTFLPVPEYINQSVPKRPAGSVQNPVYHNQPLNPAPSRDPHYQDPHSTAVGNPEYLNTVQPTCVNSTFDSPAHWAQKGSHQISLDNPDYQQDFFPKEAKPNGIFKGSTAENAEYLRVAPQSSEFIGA
T1 sequence (P00533 with tags, fused parts or gaps DUP768-770): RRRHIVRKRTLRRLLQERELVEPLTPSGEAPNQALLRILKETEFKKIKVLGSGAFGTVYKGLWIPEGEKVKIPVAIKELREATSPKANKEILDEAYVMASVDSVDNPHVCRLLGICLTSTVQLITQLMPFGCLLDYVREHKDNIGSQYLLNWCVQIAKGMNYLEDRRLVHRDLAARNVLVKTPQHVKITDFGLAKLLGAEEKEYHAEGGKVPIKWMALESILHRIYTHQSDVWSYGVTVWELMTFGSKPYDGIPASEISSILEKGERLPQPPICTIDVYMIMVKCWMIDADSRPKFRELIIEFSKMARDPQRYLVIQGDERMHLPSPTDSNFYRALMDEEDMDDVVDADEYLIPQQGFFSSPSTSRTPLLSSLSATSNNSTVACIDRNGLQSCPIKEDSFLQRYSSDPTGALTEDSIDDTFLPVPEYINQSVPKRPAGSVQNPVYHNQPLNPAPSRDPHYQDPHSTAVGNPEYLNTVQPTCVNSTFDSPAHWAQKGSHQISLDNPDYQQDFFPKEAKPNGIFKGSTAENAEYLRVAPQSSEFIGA
Chain of Ba/F3-EGFR-insSVD cells (P00533 with tags, fused parts or gaps DUP768-770): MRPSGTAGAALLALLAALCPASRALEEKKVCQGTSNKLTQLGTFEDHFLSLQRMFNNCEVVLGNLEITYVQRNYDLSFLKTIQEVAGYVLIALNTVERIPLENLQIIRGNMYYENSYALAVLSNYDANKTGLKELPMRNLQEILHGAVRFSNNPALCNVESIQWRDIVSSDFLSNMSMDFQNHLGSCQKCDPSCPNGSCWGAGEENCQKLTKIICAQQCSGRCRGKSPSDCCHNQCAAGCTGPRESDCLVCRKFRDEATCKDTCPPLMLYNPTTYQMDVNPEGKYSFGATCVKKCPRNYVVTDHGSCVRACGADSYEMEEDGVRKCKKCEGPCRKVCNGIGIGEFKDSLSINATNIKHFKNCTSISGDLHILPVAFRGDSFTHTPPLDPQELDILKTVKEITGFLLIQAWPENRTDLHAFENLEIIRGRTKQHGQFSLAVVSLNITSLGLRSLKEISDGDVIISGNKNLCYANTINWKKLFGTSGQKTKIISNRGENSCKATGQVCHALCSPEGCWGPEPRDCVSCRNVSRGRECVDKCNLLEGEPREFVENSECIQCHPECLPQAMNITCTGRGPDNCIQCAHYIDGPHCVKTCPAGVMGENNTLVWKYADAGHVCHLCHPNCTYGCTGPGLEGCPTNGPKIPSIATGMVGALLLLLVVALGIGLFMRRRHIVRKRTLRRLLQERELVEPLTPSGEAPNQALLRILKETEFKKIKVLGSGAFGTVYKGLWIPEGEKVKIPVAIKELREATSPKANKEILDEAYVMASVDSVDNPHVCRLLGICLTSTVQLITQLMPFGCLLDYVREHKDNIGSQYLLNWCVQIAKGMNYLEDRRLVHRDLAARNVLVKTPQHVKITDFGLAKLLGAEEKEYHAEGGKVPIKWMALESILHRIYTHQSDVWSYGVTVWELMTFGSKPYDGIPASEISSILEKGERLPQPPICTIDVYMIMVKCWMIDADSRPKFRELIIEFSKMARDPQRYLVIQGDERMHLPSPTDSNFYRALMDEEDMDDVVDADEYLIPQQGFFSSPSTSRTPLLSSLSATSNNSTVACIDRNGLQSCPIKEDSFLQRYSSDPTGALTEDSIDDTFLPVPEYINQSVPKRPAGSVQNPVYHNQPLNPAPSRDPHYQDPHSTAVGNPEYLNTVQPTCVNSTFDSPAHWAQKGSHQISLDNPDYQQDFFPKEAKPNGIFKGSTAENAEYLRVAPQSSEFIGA
T2 sequence (O43683 704-1085): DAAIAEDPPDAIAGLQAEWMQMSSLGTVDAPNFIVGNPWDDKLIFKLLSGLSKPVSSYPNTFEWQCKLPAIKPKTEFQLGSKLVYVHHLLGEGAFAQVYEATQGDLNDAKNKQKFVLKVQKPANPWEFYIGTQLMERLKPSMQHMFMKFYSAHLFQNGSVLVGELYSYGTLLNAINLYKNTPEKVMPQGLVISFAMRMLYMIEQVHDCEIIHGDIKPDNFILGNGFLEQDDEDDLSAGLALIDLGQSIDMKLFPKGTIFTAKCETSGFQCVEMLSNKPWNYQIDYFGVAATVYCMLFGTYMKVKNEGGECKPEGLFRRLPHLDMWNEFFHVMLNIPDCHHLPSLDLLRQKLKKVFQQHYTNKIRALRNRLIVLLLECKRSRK

- IC50 [3]: < 3 nM
- mutEGFR (D770_N771insSVD) kinase assay IC50 [4]: 0.1 nM
- IC50 [5]: 1.94 nM
- IC50 [6]: 6310 nM
SMILES: COc1c(F)cccc1Nc1c(-c2ccncc2OCC2COCCO2)[nH]c2c1C(=O)NCC2 (single isomer, unassigned) [Example 6, 2-{3-[(1,4-dioxan-2-yl)methoxy]pyridin-4-yl}-3-(3-fluoro-2-methoxyanilino)-1,5,6,7-tetrahydro-4H-pyrrolo[3,2-c]pyridin-4-one]
- GI50 [1]: 31.8 nM
- GI50 [2]: 785 nM
- GI50 [7]: 50.3 nM
